Assay results: the supplement of paper PMC10307832

How the values were obtained:
Assay in all cases: relative viability (nuclei count vs DMSO), 5 days (fraction); higher = more cells survive
201T = tested on: 201T
Summary of the method: (§1)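 A single step with final 0.05% Triton X-100, 1% formaldehyde and 1 ug/ml Hoechst fixed the cells and stained nuclei 5 days after treatment. Lung cancer cell lines in 1536-well plates had been treated by pin tool the day after seeding with one drug alone or a fixed anchor-drug dose plus five library-drug doses (not always all listed) in √10 steps, and nuclei were counted on 4× images. Relative viability is the ratio of nuclei in treated wells to nuclei in vehicle wells, taken as the median of duplicate plates.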

A-427 = tested on: A-427
Summary of the method: as §1

ABC-1 = tested on: ABC-1
Summary of the method: as §1

BEN = tested on: BEN
Summary of the method: as §1

CAL-12T = tested on: CAL-12T
Summary of the method: as §1

H3255 = tested on: H3255
Summary of the method: as §1

LC-2-ad = tested on: LC-2-ad
Summary of the method: as §1

LCLC-97TM1 = tested on: LCLC-97TM1
Summary of the method: as §1

NCI-H1650 = tested on: NCI-H1650
Summary of the method: as §1

NCI-H1651 = tested on: NCI-H1651
Summary of the method: as §1

NCI-H1915 = tested on: NCI-H1915
Summary of the method: as §1

NCI-H1944 = tested on: NCI-H1944
Summary of the method: as §1

NCI-H2023 = tested on: NCI-H2023
Summary of the method: as §1

NCI-H2087 = tested on: NCI-H2087
Summary of the method: as §1

NCI-H460 = tested on: NCI-H460
Summary of the method: as §1

NCI-H520 = tested on: NCI-H520
Summary of the method: as §1

NCI-H596 = tested on: NCI-H596
Summary of the method: as §1

NCI-H650 = tested on: NCI-H650
Summary of the method: as §1

NCI-H661 = tested on: NCI-H661
Summary of the method: as §1

NCI-H727 = tested on: NCI-H727
Summary of the method: as §1

PC-3 [JPC-3] = tested on: PC-3 [JPC-3]
Summary of the method: as §1

SMILES: CC(=O)O[C@@]12CO[C@@H]1C[C@H](O)[C@@]1(C)C(=O)[C@H](O)C3=C(C)[C@@H](OC(=O)[C@H](O)[C@@H](NC(=O)OC(C)(C)C)c4ccccc4)C[C@@](O)([C@@H](OC(=O)c4ccccc4)[C@H]21)C3(C)C [Docetaxel] + CS(=O)(=O)CCNCc1ccc(-c2ccc3ncnc(Nc4ccc(OCc5cccc(F)c5)c(Cl)c4)c3c2)o1 [Lapatinib] (partner 2 µM)
- relative viability (201T; first compound 0.0002 µM): 0.917
- relative viability (201T; first compound 0.000632 µM): 0.937
- relative viability (201T; first compound 0.002 µM): 0.822
- relative viability (201T; first compound 0.006325 µM): 0.622
- relative viability (201T; first compound 0.02 µM): 0.373
- relative viability (A-427; first compound 0.0002 µM): 0.947
- relative viability (A-427; first compound 0.000632 µM): 1.02
- relative viability (A-427; first compound 0.002 µM): 0.961
- relative viability (A-427; first compound 0.006325 µM): 0.211
- relative viability (A-427; first compound 0.02 µM): 0.162
- relative viability (ABC-1; first compound 0.0002 µM): 1.21
- relative viability (ABC-1; first compound 0.000632 µM): 1.12
- relative viability (ABC-1; first compound 0.002 µM): 1.14
- relative viability (ABC-1; first compound 0.006325 µM): 0.797
- relative viability (ABC-1; first compound 0.02 µM): 0.577
- relative viability (BEN; first compound 0.0002 µM): 0.582
- relative viability (BEN; first compound 0.000632 µM): 0.549
- relative viability (BEN; first compound 0.002 µM): 0.233
- relative viability (BEN; first compound 0.006325 µM): 0.203
- relative viability (BEN; first compound 0.02 µM): 0.176
- relative viability (CAL-12T; first compound 0.0002 µM): 0.757
- relative viability (CAL-12T; first compound 0.000632 µM): 0.496
- relative viability (CAL-12T; first compound 0.002 µM): 0.277
- relative viability (CAL-12T; first compound 0.006325 µM): 0.25
- relative viability (H3255; first compound 0.0002 µM): 0.227
- relative viability (H3255; first compound 0.002 µM): 0.223
- relative viability (H3255; first compound 0.006325 µM): 0.19
- relative viability (H3255; first compound 0.02 µM): 0.175
- relative viability (LC-2-ad; first compound 0.0002 µM): 0.538
- relative viability (LC-2-ad; first compound 0.000632 µM): 0.296
- relative viability (LC-2-ad; first compound 0.002 µM): 0.14
- relative viability (LC-2-ad; first compound 0.006325 µM): 0.112
- relative viability (LC-2-ad; first compound 0.02 µM): 0.0888
- relative viability (LCLC-97TM1; first compound 0.000632 µM): 0.865
- relative viability (LCLC-97TM1; first compound 0.002 µM): 0.155
- relative viability (LCLC-97TM1; first compound 0.006325 µM): 0.175
- relative viability (LCLC-97TM1; first compound 0.02 µM): 0.083
- relative viability (NCI-H1650; first compound 0.0002 µM): 0.721
- relative viability (NCI-H1650; first compound 0.000632 µM): 0.322
- relative viability (NCI-H1650; first compound 0.006325 µM): 0.153
- relative viability (NCI-H1650; first compound 0.02 µM): 0.152
- relative viability (NCI-H1651; first compound 0.0002 µM): 0.724
- relative viability (NCI-H1651; first compound 0.000632 µM): 0.496
- relative viability (NCI-H1651; first compound 0.002 µM): 0.161
- relative viability (NCI-H1651; first compound 0.006325 µM): 0.11
- relative viability (NCI-H1651; first compound 0.02 µM): 0.101
- relative viability (NCI-H1915; first compound 0.0002 µM): 0.937
- relative viability (NCI-H1915; first compound 0.000632 µM): 0.665
- relative viability (NCI-H1915; first compound 0.002 µM): 0.351
- relative viability (NCI-H1915; first compound 0.006325 µM): 0.146
- relative viability (NCI-H1915; first compound 0.02 µM): 0.118
- relative viability (NCI-H1944; first compound 0.0002 µM): 0.545
- relative viability (NCI-H1944; first compound 0.000632 µM): 0.667
- relative viability (NCI-H1944; first compound 0.002 µM): 0.579
- relative viability (NCI-H1944; first compound 0.006325 µM): 0.242
- relative viability (NCI-H1944; first compound 0.02 µM): 0.112
- relative viability (NCI-H2023; first compound 0.0002 µM): 0.722
- relative viability (NCI-H2023; first compound 0.000632 µM): 0.408
- relative viability (NCI-H2023; first compound 0.002 µM): 0.135
- relative viability (NCI-H2023; first compound 0.006325 µM): 0.1
- relative viability (NCI-H2023; first compound 0.02 µM): 0.0578
- relative viability (NCI-H2087; first compound 0.0002 µM): 0.831
- relative viability (NCI-H2087; first compound 0.000632 µM): 0.678
- relative viability (NCI-H2087; first compound 0.002 µM): 0.351
- relative viability (NCI-H2087; first compound 0.006325 µM): 0.269
- relative viability (NCI-H2087; first compound 0.02 µM): 0.137
- relative viability (NCI-H460; first compound 0.0002 µM): 0.665
- relative viability (NCI-H460; first compound 0.000632 µM): 0.163
- relative viability (NCI-H460; first compound 0.002 µM): 0.0209
- relative viability (NCI-H460; first compound 0.006325 µM): 0.0147
- relative viability (NCI-H460; first compound 0.02 µM): 0.0097
- relative viability (NCI-H520; first compound 0.0002 µM): 0.856
- relative viability (NCI-H520; first compound 0.000632 µM): 0.684
- relative viability (NCI-H520; first compound 0.002 µM): 0.246
- relative viability (NCI-H520; first compound 0.006325 µM): 0.162
- relative viability (NCI-H520; first compound 0.02 µM): 0.12
- relative viability (NCI-H596; first compound 0.0002 µM): 0.995
- relative viability (NCI-H596; first compound 0.000632 µM): 0.957
- relative viability (NCI-H596; first compound 0.002 µM): 0.844
- relative viability (NCI-H596; first compound 0.006325 µM): 0.372
- relative viability (NCI-H596; first compound 0.02 µM): 0.35
- relative viability (NCI-H650; first compound 0.0002 µM): 0.554
- relative viability (NCI-H650; first compound 0.000632 µM): 0.384
- relative viability (NCI-H650; first compound 0.002 µM): 0.307
- relative viability (NCI-H650; first compound 0.02 µM): 0.168
- relative viability (NCI-H661; first compound 0.0002 µM): 0.495
- relative viability (NCI-H661; first compound 0.000632 µM): 0.516
- relative viability (NCI-H661; first compound 0.002 µM): 0.4
- relative viability (NCI-H661; first compound 0.006325 µM): 0.369
- relative viability (NCI-H661; first compound 0.02 µM): 0.245
- relative viability (NCI-H727; first compound 0.0002 µM): 0.854
- relative viability (NCI-H727; first compound 0.000632 µM): 0.787
- relative viability (NCI-H727; first compound 0.002 µM): 0.371
- relative viability (NCI-H727; first compound 0.006325 µM): 0.26
- relative viability (PC-3 [JPC-3]; first compound 0.0002 µM): 0.44
- relative viability (PC-3 [JPC-3]; first compound 0.000632 µM): 0.476
- relative viability (PC-3 [JPC-3]; first compound 0.002 µM): 0.385
- relative viability (PC-3 [JPC-3]; first compound 0.006325 µM): 0.295
- relative viability (PC-3 [JPC-3]; first compound 0.02 µM): 0.197
